Experimental data taken from patent US20250122223A1, “HETEROCYCLIC COMPOUNDS AS UBIQUITIN SPECIFIC PROTEASE 7 INHIBITORS” (ALMAC DISCOVERY LIMITED, priority 2022, published 2025).
pIC50: −log10 of the molar value. Read-outs that look alike come from different tables or passages of the source.

Biological target: USP7 (Homo sapiens (Human), UniProt Q93009)
Assay: USP7 fluorescence polarisation (FP) assay with ubiquitin-Lys-TAMRA substrate
Type: biochemical
Details: biochemical inhibition; for pIC50: read-out: USP7 IC50 activity (Table 3a, classes); for IC50: unit not given in Table 3b (Table 1 and key of Table 3a use μM), read-out: USP7 IC50 activity (Table 3b)

Chain of USP7 (Q93009 whole entry): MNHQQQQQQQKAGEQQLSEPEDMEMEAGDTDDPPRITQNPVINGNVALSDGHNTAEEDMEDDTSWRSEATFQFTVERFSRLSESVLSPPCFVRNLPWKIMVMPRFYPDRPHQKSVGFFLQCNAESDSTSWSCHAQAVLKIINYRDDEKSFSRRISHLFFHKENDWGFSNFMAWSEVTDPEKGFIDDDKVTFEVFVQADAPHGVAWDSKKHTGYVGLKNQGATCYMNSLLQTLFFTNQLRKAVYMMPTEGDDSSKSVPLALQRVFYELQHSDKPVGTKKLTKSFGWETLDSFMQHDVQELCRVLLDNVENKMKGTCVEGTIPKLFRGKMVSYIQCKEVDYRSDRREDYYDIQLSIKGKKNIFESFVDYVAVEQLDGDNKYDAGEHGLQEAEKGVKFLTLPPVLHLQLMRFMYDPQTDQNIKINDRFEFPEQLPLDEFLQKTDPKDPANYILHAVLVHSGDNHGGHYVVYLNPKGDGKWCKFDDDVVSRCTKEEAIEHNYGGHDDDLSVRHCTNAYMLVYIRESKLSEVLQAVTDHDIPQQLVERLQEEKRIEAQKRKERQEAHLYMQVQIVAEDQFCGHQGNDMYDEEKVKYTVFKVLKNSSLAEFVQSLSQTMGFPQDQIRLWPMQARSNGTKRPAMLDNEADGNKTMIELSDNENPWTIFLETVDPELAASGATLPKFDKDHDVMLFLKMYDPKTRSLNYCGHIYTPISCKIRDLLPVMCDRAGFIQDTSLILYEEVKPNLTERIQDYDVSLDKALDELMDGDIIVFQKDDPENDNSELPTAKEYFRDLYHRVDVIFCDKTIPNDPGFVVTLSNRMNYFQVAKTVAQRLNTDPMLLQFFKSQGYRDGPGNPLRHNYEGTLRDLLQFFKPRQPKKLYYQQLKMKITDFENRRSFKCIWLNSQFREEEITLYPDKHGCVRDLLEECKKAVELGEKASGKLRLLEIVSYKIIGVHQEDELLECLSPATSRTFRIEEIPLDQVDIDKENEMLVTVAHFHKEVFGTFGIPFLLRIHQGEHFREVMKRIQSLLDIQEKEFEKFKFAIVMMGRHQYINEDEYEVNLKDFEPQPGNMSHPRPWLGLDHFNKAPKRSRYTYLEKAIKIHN

With `O=C(c1ccc(Cl)cc1)N1CCC(O)(Cn2cnc3c(cc(Cl)n3-c3ccc(C4COC5CC5N4)cc3)c2=O)CC1` (centres unmarked) [Example 60, 7-(4-(2-Oxa-5-azabicyclo[4.1.0]heptan-4-yl)phenyl)-6-chloro-3-((1-(4-chlorobenzoyl)-4-hydroxypiperidin-4-yl)methyl)-3,7-dihydro-4H-pyrrolo[2,3-d]pyrimidin-4-one] the pIC50 was 5.70 to 6.60 and the IC50 was 0.313 µM.
Work on `C[C@H]1CN[C@H](c2ccc(-n3c(Cl)cc4c(=O)n(CC5(O)CCN(C(=O)/C=C/c6ccccc6)CC5)cnc43)cc2)CO1` [Example 63, 6-Chloro-3-((1-cinnamoyl-4-hydroxypiperidin-4-yl)methyl)-7-(4-((3R,6S)-6-methylmorpholin-3-yl)phenyl)-3,7-dihydro-4H-pyrrolo[2,3-d]pyrimidin-4-one] yielded a pIC50 of 6.60 to 7.00 and an IC50 of 0.221 µM.
`C[C@H]1CN[C@H](c2ccc(-n3c(Cl)cc4c(=O)n(CC5(O)CCN(C(=O)c6ccc(C(F)(F)F)cc6)CC5)cnc43)cc2)CO1` [Example 65, 6-Chloro-3-((4-hydroxy-1-(4-(trifluoromethyl)benzoyl)Piperidin-4-yl)methyl)-7-(4-((3R,6S)-6-methylmorpholin-3-yl)phenyl)-3,7-dihydro-4H-pyrrolo[2,3-d]pyrimidin-4-one] gave a pIC50 of 6.60 to 7.00 and an IC50 of 0.156 µM.
In the case of `CC1(C(=O)N2CCC(O)(Cn3cnc4c(cc(Cl)n4-c4ccc(C5COCCN5)c(F)c4)c3=O)CC2)CC1` (centres unmarked) [Example 72, 6-Chloro-7-(3-fluoro-4-(morpholin-3-yl)phenyl)-3-((4-hydroxy-1-(1-methylcyclopropane-1-carbonyl)piperidin-4-yl)methyl)-3,7-dihydro-4H-pyrrolo[2,3-d]pyrimidin-4-one], the pIC50 was 6.60 to 7.00 and the IC50 was 0.211 µM.
For `CN1CCOCC1c1ccc(-n2c(Cl)cc3c(=O)n(CC4(O)CCN(C(=O)C5(C)CC5)CC4)cnc32)cc1` (centres unmarked) [Example 75, 6-Chloro-3-((4-hydroxy-1-(1-methylcyclopropane-1-carbonyl)piperidin-4-yl)methyl)-7-(4-(4-methylmorpholin-3-yl)phenyl)-3,7-dihydro-4H-pyrrolo[2,3-d]pyrimidin-4-one], the pIC50 was 5.70 to 6.60 and the IC50 was 2.09 µM.
With `CC1(C(=O)N2CCC(O)(Cn3cnc4c(cc(Cl)n4-c4ccc([C@@H]5COCCN5)cc4)c3=O)CC2)CC1C(F)(F)F` (stereo partly drawn) [Example 84, 6-Chloro-3-((4-hydroxy-1-(1-methyl-2-(trifluoromethyl)cyclopropane-1-carbonyl)piperidin-4-yl)methyl)-7-(4-((R)-morpholin-3-yl)phenyl)-3,7-dihydro-4H-pyrrolo[2,3-d]pyrimidin-4-one] the pIC50 was > 7.00 and the IC50 was 0.045 µM.
In the case of `CC1(C(=O)N2CCC(O)(Cn3cnc4c(cc(Cl)n4-c4ccc(C5CNCCO5)cc4)c3=O)CC2)CC1` (centres unmarked) [Example 88, 6-Chloro-3-((4-hydroxy-1-(1-methylcyclopropane-1-carbonyl)piperidin-4-yl)methyl)-7-(4-(morpholin-2-yl)phenyl)-3,7-dihydro-4H-pyrrolo[2,3-d]pyrimidin-4-one], the pIC50 was 6.60 to 7.00 and the IC50 was 0.158 µM.
In the case of `Cc1cc(Cl)ccc1C(=O)N1CCC(O)(Cn2cnc3c(cc(Cl)n3-c3ccc([C@H]4CO[C@H](C)CN4)c(C)c3)c2=O)CC1` [Example 89, 6-Chloro-3-((1-(4-chloro-2-methylbenzoyl)-4-hydroxypiperidin-4-yl)methyl)-7-(3-methyl-4-((3S,6R)-6-methylmorpholin-3-yl)phenyl)-3,7-dihydro-4H-pyrrolo[2,3-d]pyrimidin-4-one], the pIC50 was 6.60 to 7.00 and the IC50 was 0.204 µM.
`Cc1cc(Cl)ccc1C(=O)N1CCC(O)(Cn2cnc3c(cc(Cl)n3-c3ccc([C@@H]4CO[C@@H](C)CN4)cc3)c2=O)CC1` [Example 90, 6-Chloro-3-((1-(4-chloro-2-methylbenzoyl)-4-hydroxypiperidin-4-yl)methyl)-7-(4-((3R,6S)-6-methylmorpholin-3-yl)phenyl)-3,7-dihydro-4H-pyrrolo[2,3-d]pyrimidin-4-one] showed a pIC50 of 5.70 to 6.60 and an IC50 of 0.293 µM.
With `C[C@H]1CN[C@H](c2ccc(-n3c(Cl)cc4c(=O)n(CC5(O)CCN(C(=O)c6ccc(C(F)F)cc6)CC5)cnc43)cc2)CO1` [Example 91, 6-Chloro-3-((1-(4-(difluoromethyl)benzoyl)-4-hydroxypiperidin-4-yl)methyl)-7-(4-((3R,6S)-6-methylmorpholin-3-yl)phenyl)-3,7-dihydro-4H-pyrrolo[2,3-d]pyrimidin-4-one] the pIC50 was 6.60 to 7.00 and the IC50 was 0.167 µM.
With `Cc1cc(-n2c(Cl)cc3c(=O)n(CC4(O)CCN(C(=O)c5ccc(C(F)F)cc5)CC4)cnc32)ccc1[C@H]1CO[C@H](C)CN1` [Example 92, 6-Chloro-3-((1-(4-(difluoromethyl)benzoyl)-4-hydroxypiperidin-4-yl)methyl)-7-(3-methyl-4-((3S,6R)-6-methylmorpholin-3-yl)phenyl)-3,7-dihydro-4H-pyrrolo[2,3-d]pyrimidin-4-one] the pIC50 was 6.60 to 7.00 and the IC50 was 0.111 µM.
In the case of `Cc1cc(-n2c(Cl)cc3c(=O)n(CC4(O)CCN(C(=O)c5ccc(C6CC6)cc5)CC4)cnc32)ccc1[C@H]1CO[C@H](C)CN1` [Example 93, 6-Chloro-3-((1-(4-cyclopropylbenzoyl)-4-hydroxypiperidin-4-yl)methyl)-7-(3-methyl-4-((3S,6R)-6-methylmorpholin-3-yl)phenyl)-3,7-dihydro-4H-pyrrolo[2,3-d]pyrimidin-4-one], the pIC50 was 6.60 to 7.00 and the IC50 was 0.16 µM.
`Cc1cc(-n2c(Cl)cc3c(=O)n(CC4(O)CCN(C(=O)c5ccc(C6(C)CC6)cc5)CC4)cnc32)ccc1[C@H]1CO[C@H](C)CN1` [Example 94, 6-Chloro-3-((4-hydroxy-1-(4-(1-methylcyclopropyl)benzoyl)piperidin-4-yl)methyl)-7-(3-methyl-4-((3S,6R)-6-methylmorpholin-3-yl)phenyl)-3,7-dihydro-4H-pyrrolo[2,3-d]pyrimidin-4-one] was tested, and the pIC50 was 6.60 to 7.00 and the IC50 was 0.193 µM.
In the case of `CC[C@H]1CN[C@H](c2ccc(-n3c(Cl)cc4c(=O)n(CC5(O)CCN(C(=O)[C@@]6(C)C[C@@H]6C)CC5)cnc43)cc2)CO1` [Example 95, 6-Chloro-3-((1-((1 S,2S)-1,2-dimethylcyclopropane-1-carbonyl)-4-hydroxypiperidin-4-yl)methyl)-7-(4-((3R,6S)-6-ethylmorpholin-3-yl)phenyl)-3,7-dihydro-4H-pyrrolo[2,3-d]pyrimidin-4-one], the pIC50 was 6.60 to 7.00 and the IC50 was 0.132 µM.
With `CC[C@H]1CN[C@H](c2ccc(-n3c(Cl)cc4c(=O)n(CC5(O)CCN(C(=O)[C@]6(C)C[C@H]6C)CC5)cnc43)cc2)CO1` [Example 96, 6-Chloro-3-((1-((1R,2R)-1,2-dimethylcyclopropane-1-carbonyl)-4-hydroxypiperidin-4-yl)methyl)-7-(4-((3R,6S)-6-ethylmorpholin-3-yl)phenyl)-3,7-dihydro-4H-pyrrolo[2,3-d]pyrimidin-4-one] the pIC50 was > 7.00 and the IC50 was 0.037 µM.
In the case of `C[C@H]1CN[C@H](c2ccc(-n3c(Cl)cc4c(=O)n(CC5(O)CCN(C(=O)C(C6CC6)C6CC6)CC5)cnc43)cc2)CO1` [Example 99, 6-Chloro-3-((1-(2,2-dicyclopropylacetyl)-4-hydroxypiperidin-4-yl)methyl)-7-(4-((3R,6S)-6-methylmorpholin-3-yl)phenyl)-3,7-dihydro-4H-pyrrolo[2,3-d]pyrimidin-4-one], the pIC50 was 5.70 to 6.60 and the IC50 was 0.263 µM.
`CC1(C(=O)N2CCC(O)(Cn3cnc4c(cc(Cl)n4-c4ccc([C@@H]5CO[C@@H](C6CC6)CN5)cc4)c3=O)CC2)CC1` [Example 100, 6-Chloro-7-(4-((3R,6S)-6-cyclopropylmorpholin-3-yl)phenyl)-3-((4-hydroxy-1-(1-methylcyclopropane-1-carbonyl)piperidin-4-yl)methyl)-3,7-dihydro-4H-pyrrolo[2,3-d]pyrimidin-4-one] was tested, and the pIC50 was > 7.00 and the IC50 was 0.079 µM.
With `C[C@H]1CN[C@H](c2ccc(-n3c(Cl)cc4c(=O)n(CC5(O)CCN(C(=O)C6(C)CC6)CC5)cnc43)cc2)CO1` [Example 101, 6-Chloro-3-((4-hydroxy-1-(1-methylcyclopropane-1-carbonyl)piperidin-4-yl)methyl)-7-(4-((3R,6S)-6-methylmorpholin-3-yl)phenyl)-3,7-dihydro-4H-pyrrolo[2,3-d]pyrimidin-4-one] the pIC50 was > 7.00 and the IC50 was 0.057 µM.
For `C[C@H]1CN[C@H](c2ccc(-n3c(Cl)cc4c(=O)n(CC5(O)CCN(C(=O)C6(C)CCC6)CC5)cnc43)cc2)CO1` [Example 102, 6-Chloro-3-((4-hydroxy-1-(1-methylcyclobutane-1-carbonyl)piperidin-4-yl)methyl)-7-(4-((3R,6S)-6-methylmorpholin-3-yl)phenyl)-3,7-dihydro-4H-pyrrolo[2,3-d]pyrimidin-4-one], the pIC50 was > 7.00 and the IC50 was 0.05 µM.
With `C[C@H]1CN[C@H](c2ccc(-n3c(Cl)cc4c(=O)n(CC5(O)CCN(C(=O)CCC6CC6)CC5)cnc43)cc2)CO1` [Example 103, 6-Chloro-3-((1-(3-cyclopropylpropanoyl)-4-hydroxypiperidin-4-yl)methyl)-7-(4-((3R,6S)-6-methylmorpholin-3-yl)phenyl)-3,7-dihydro-4H-pyrrolo[2,3-d]pyrimidin-4-one] the pIC50 was 6.60 to 7.00 and the IC50 was 0.211 µM.
With `CC1(C(=O)N2CCC(O)(Cn3cnc4c(cc(Cl)n4-c4ccc([C@H]5CO[C@H](C6CC6)CN5)cc4)c3=O)CC2)CC1` [Example 104, 6-Chloro-7-(4-((3S,6R)-6-cyclopropylmorpholin-3-yl)phenyl)-3-((4-hydroxy-1-(1-methylcyclopropane-1-carbonyl)piperidin-4-yl)methyl)-3,7-dihydro-4H-pyrrolo[2,3-d]pyrimidin-4-one] the pIC50 was > 7.00 and the IC50 was 0.094 µM.
In the case of `CC[C@@H]1CN[C@@H](c2ccc(-n3c(Cl)cc4c(=O)n(CC5(O)CCN(C(=O)C6(C)CC6)CC5)cnc43)cc2)CO1` [Example 105, 6-Chloro-7-(4-((3S,6R)-6-ethylmorpholin-3-yl)phenyl)-3-((4-hydroxy-1-(1-methylcyclopropane-1-carbonyl)piperidin-4-yl)methyl)-3,7-dihydro-4H-pyrrolo[2,3-d]pyrimidin-4-one], the pIC50 was > 7.00 and the IC50 was 0.073 µM.
